Consider 6 compounds from ChEMBL document CHEMBL5042508, “Structures and Biological Activities of Polyacylated ent-Kaurane Diterpenoid Glycosides from the Aerial Parts of Inula hupehensis” (J Nat Prod, 2022).

In series [1] the test system is BV-2. The series can be described thus: Antineuroinflammatory activity against mouse BV-2 cells assessed as inhibition of LPS-induced NO production by Griess assay. In kind it is functional, cell-based.
The subject of series [2] is BV-2. The experiment in a line: Cytotoxicity against mouse BV2 cells assessed as reduction in cell viability by MTT assay. It counts as toxicity, cell-based.
A short description of series [3]: Inhibition of Saccharomyces cerevisiae alpha-glucosidase using pNPG as substrate assessed as release of p-nitrophenol preincubated for 18 mins followed by substrate addition and measured after 30 mins by colorimetric method.

In general, IC50 refers to the concentration that gives 50% inhibition. On to `C=C1[C@@H]2CC[C@H]3[C@]4(C)C[C@H](O[C@@H]5O[C@H](COC(C)=O)[C@@H](OC(C)=O)[C@H](O[C@@H]6OC[C@H](O)[C@H](O)[C@H]6O)[C@H]5OC(=O)CC(C)C)C[C@@H](C(=O)O)[C@H]4CC[C@]3(C2)[C@H]1O`, for which the IC50 in series [1] was 15.6 µM. The Activity entry in series [2] is reported as “Non-Toxic”.

As to `C=C1[C@@H]2CC[C@H]3[C@]4(C)C[C@H](O[C@@H]5O[C@H](CO)[C@@H](OC(C)=O)[C@H](O[C@@H]6OC[C@H](OC(C)=O)[C@H](O)[C@H]6O)[C@H]5OC(=O)CC(C)C)C[C@@H](C(=O)O)[C@H]4CC[C@]3(C2)[C@H]1O`, in series [3], the IC50 is 537 µM.

Take `C=C1[C@@H]2CC[C@H]3[C@]4(C)C[C@H](O[C@@H]5O[C@H](CO)[C@@H](O)[C@H](OC(C)=O)[C@H]5OC(=O)CC(C)C)CC(C(=O)O)(C(=O)O)[C@H]4CC[C@]3(C2)[C@H]1O`: in series [3], the IC50 is 32.8 µM.

As to `C=C1[C@@H]2CC[C@H]3[C@]4(C)C[C@H](O[C@@H]5O[C@H](CO)[C@@H](O)[C@H](O[C@@H]6OC[C@H](OC(C)=O)[C@H](O)[C@H]6OC(C)=O)[C@H]5OC(=O)CC(C)C)C[C@@H](C(=O)O)[C@H]4CC[C@]3(C2)[C@H]1O`, in series [3], the IC50 came to 373 µM.

For `C[C@H]1O[C@H](O[C@H]2[C@H](O)[C@@H](O)[C@@H](O[C@H]3[C@H](O)[C@@H](O)C(O)O[C@@H]3CO)O[C@@H]2CO)[C@H](O)[C@@H](O)[C@@H]1N[C@H]1C=C(CO)[C@@H](O)[C@H](O)[C@H]1O` (some centres not stated) [ACARBOSE], the IC50 in series [3] amounted to 388 µM.

Regarding `CNC(=N)NCCC[C@H](N)C(=O)O` [TILARGININE], in series [1], the IC50 turned out to be 31.8 µM.
